Reference: US20090143421A1, “USE OF 2-BENZOYL-IMIDAZOPYRIDINES IN THERAPEUTICS” (SANOFI-AVENTIS, priority 2006, published 2009)
Counter-ions that a name gives are not always drawn.

How the values were obtained:
mouse Nurrl receptor = target: T1, mouse Nurrl receptor (Mus musculus, UniProt Q06219); assay: in vitro activity on N2A cells (NBRE-luciferase reporter); format: cell-based; conditions: N2A-8NBRE-luciferase cells, 24 hours incubation with the products
T1 construct: a cell line (N2A) endogenously expressing the mouse Nurrl receptor; host or cells: Neuro-2A (N2A) mouse neuroblastoma cells stably transfected with 8NBRE-luciferase
T1 sequence (Q06219 whole entry): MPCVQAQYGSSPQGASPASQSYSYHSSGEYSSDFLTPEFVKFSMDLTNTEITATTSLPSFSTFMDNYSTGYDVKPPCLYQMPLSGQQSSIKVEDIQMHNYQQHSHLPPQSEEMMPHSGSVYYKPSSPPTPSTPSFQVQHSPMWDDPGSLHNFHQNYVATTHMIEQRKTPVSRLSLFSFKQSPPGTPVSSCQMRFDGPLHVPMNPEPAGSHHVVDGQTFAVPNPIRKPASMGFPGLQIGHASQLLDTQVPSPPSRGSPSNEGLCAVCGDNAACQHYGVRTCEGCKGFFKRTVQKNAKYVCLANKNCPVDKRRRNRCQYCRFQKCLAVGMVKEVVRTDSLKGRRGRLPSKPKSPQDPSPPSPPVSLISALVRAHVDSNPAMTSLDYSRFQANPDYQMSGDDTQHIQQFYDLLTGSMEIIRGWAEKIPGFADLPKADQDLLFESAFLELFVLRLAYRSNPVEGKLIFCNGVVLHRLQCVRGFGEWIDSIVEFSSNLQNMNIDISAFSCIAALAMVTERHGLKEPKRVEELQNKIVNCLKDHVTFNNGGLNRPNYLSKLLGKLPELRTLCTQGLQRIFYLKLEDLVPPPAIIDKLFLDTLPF
Protocol: Evaluation of the in vitro Activity on N2A Cells
Assays consisted in measuring the in vitro activity of the compounds of the invention on a cell line (N2A) endogenously expressing the mouse Nurrl receptor and stably transfected with the NOT binding response element (NBRE) coupled to the luciferase reporter gene. The EC50 values are between 0.01 and 1000 nM. The assays were carried out according to the procedure described below.
The Neuro-2A cell line comes from a standard commercial source (ATCC) . The Neuro-2A clone was obtained from a spontaneous tumor originating from an A albino mouse strain, by R. J Klebe et al. This Neuro-2A line is subsequently stably transfected with 8NBRE-luciferase. The N2A-8NBRE cells are cultured until confluence in 75 cm^2 culture flasks containing DMEM supplemented with 10% of fetal calf serum, 4.5 g/l of glucose and 0.4 mg/ml of geneticin. After a week of culture, the cells are recovered with 0.25% trypsin for 30 seconds and then resuspended in DMEM without phenol red, containing 4.5 g/l of glucose and 10% of Hyclone delipidized serum, and deposited into transparent-bottom 96-well white plates. The cells are deposited at a rate of 60 000 per well in 75 μl for 24 hours before the addition of the products. […] The plates are subsequently measured in a luminescence counter for microplates after having been sealed with an adhesive film. […]

human NOT receptor = assay: binding to the human NOT receptor by SPR (BIACORE S51); conditions: immobilized GST-NOT whole protein and NOT ligand-binding domain, 3.75 to 0.1 μM, 4° C.
Protocol: Evaluation of the Binding to the Human NOT Receptor
The direct binding between compounds of the invention and the human NOT receptor was evaluated using SPR (surface plasmon resonance) technology. In this assay, the protein is immobilized covalently to the matrix and the molecule to be studied is injected into the chamber containing the sensor chip. The signal is directly proportional to the amount of product bound to the protein. The binding assays were carried out in a BIACORE S51 instrument (Biacore Inc., Piscataway N.J.). The GST-NOT (NOT-FL) whole protein was provided by Invitrogen (PV3265). The NOT ligand-binding domain (His-Thr-NOT 329-598) was expressed and purified as described in Nature 423, 555-560. The two proteins, diluted to a concentration of 20 μg/ml in an acetate buffer, pH 5.0, containing 5 mM of DTT, were immobilized on a carboxymethyl 5′ dextran surface (CM5 sensor chip, Biacore Inc.) by amine coupling according to the protocol recommended by Biacore, elution being carried with an HBS-N buffer (10 mM HEPES, 0.15 M NaCl, 3 mM EDTA, pH 7.4). Approximately 10000-15000 resonance units (RU) of the proteins are captured on the surface of the CM5 sensor chip. […] The dissociation was recorded for 5 minutes without any other procedure for regenerating the surface. […]

Row | Structure (SMILES) | EC50 (mouse Nurrl receptor) [nM] | affinity (classified by maximum binding level and kinetic parameters) (human NOT receptor)
1 | O=C(c1ccccc1)c1cn2ccccc2n1 [Compound 7, (imidazo[1,2-a]pyridin-2-yl)(phenyl)methanone] | 31 | –
2 | Cc1ccn2cc(C(=O)c3ccccc3)nc2c1 [Compound 6, (7-methylimidazo[1,2-a]pyridin-2-yl)(phenyl)methanone] | 1.2 | medium affinity
3 | O=C(c1ccccc1)c1cn2cc(Cl)ccc2n1 [Compound 3, (6-Chloroimidazo[1,2-a]Pyridin-2-yl)-(Phenyl)Methanone Hydrobromide (1:1)] | – | high affinity
